What was measured:
BT-474 Tam1 [1] = test: relative IC50 (midpoint of fitted logistic curve, plateau may be below 50% inhibition; CellTiter-Glo viability); higher = less potent; conditions: 4-OH-tamoxifen in medium 1 µM; 72 h
How it was run: (§1)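 After seeding into 384-well plates with library drugs at five concentrations spanning a 10 000-fold range, breast cancer cell lines and their resistant derivatives were incubated 72 h at 37 °C. Resistant lines received medium with 1 μM of the selecting drug. CellTiter-Glo signal was read on a PHERAstar and scaled to vehicle-only and positive controls. Drug sensitivity score, relative IC50 (the curve midpoint) and top-dose inhibition came from logistic fits run in the Breeze pipeline.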

ZR-75-1 [2] = test: as above; conditions: 72 h
How it was run: as §1

ZR-75-1 Tam1 [3] = test: as above; conditions: 4-OH-tamoxifen in medium 1 µM; 72 h
How it was run: as §1

MCF-7 [4] = test: as above; conditions: 72 h
How it was run: as §1

ZR-75-1 Tam2 [5] = test: as above; conditions: 4-OH-tamoxifen in medium 1 µM; 72 h
How it was run: as §1

T-47D Tam2 [6] = test: as above; conditions: 4-OH-tamoxifen in medium 1 µM; 72 h
How it was run: as §1

T-47D [7] = test: as above; conditions: 72 h
How it was run: as §1

MCF-7 Tam1 [8] = test: as above; conditions: 4-OH-tamoxifen in medium 1 µM; 72 h
How it was run: as §1

BT-474 [9] = test: as above; conditions: 72 h
How it was run: as §1

T-47D Tam1 [10] = test: as above; conditions: 4-OH-tamoxifen in medium 1 µM; 72 h
How it was run: as §1

BT-474 Tam2 [11] = test: as above; conditions: 4-OH-tamoxifen in medium 1 µM; 72 h
How it was run: as §1

BT-474 Tam1 [12] = test: drug sensitivity score (DSS) (DSS (dimensionless)); higher = more sensitive; extreme values may be limits of the assay; conditions: 4-OH-tamoxifen in medium 1 µM; 72 h
How it was run: as §1

ZR-75-1 [13] = test: as above; conditions: 72 h
How it was run: as §1

ZR-75-1 Tam1 [14] = test: as above; conditions: 4-OH-tamoxifen in medium 1 µM; 72 h
How it was run: as §1

MCF-7 [15] = test: as above; conditions: 72 h
How it was run: as §1

ZR-75-1 Tam2 [16] = test: as above; conditions: 4-OH-tamoxifen in medium 1 µM; 72 h
How it was run: as §1

T-47D Tam2 [17] = test: as above; conditions: 4-OH-tamoxifen in medium 1 µM; 72 h
How it was run: as §1

T-47D [18] = test: as above; conditions: 72 h
How it was run: as §1

MCF-7 Tam1 [19] = test: as above; conditions: 4-OH-tamoxifen in medium 1 µM; 72 h
How it was run: as §1

BT-474 [20] = test: as above; conditions: 72 h
How it was run: as §1

T-47D Tam1 [21] = test: as above; conditions: 4-OH-tamoxifen in medium 1 µM; 72 h
How it was run: as §1

BT-474 Tam2 [22] = test: as above; conditions: 4-OH-tamoxifen in medium 1 µM; 72 h
How it was run: as §1

Row | Structure (SMILES) | relative IC50 (BT-474 Tam1 [1]) | relative IC50 (ZR-75-1 [2]; 4-OH-tamoxifen in medium 0 µM) | relative IC50 (ZR-75-1 [2]; 4-OH-tamoxifen in medium 1 µM) | relative IC50 (ZR-75-1 Tam1 [3]) | relative IC50 (MCF-7 [4]; 4-OH-tamoxifen in medium 0 µM) | relative IC50 (MCF-7 [4]; 4-OH-tamoxifen in medium 1 µM) | relative IC50 (ZR-75-1 Tam2 [5]) | relative IC50 (T-47D Tam2 [6]) | relative IC50 (T-47D [7]; 4-OH-tamoxifen in medium 0 µM) | relative IC50 (T-47D [7]; 4-OH-tamoxifen in medium 1 µM) | relative IC50 (MCF-7 Tam1 [8]) | relative IC50 (BT-474 [9]; 4-OH-tamoxifen in medium 0 µM) | relative IC50 (BT-474 [9]; 4-OH-tamoxifen in medium 1 µM) | relative IC50 (T-47D Tam1 [10]) | relative IC50 (BT-474 Tam2 [11]) | drug sensitivity score (BT-474 Tam1 [12]) | drug sensitivity score (ZR-75-1 [13]; 4-OH-tamoxifen in medium 0 µM) | drug sensitivity score (ZR-75-1 [13]; 4-OH-tamoxifen in medium 1 µM) | drug sensitivity score (ZR-75-1 Tam1 [14]) | drug sensitivity score (MCF-7 [15]; 4-OH-tamoxifen in medium 0 µM) | drug sensitivity score (MCF-7 [15]; 4-OH-tamoxifen in medium 1 µM) | drug sensitivity score (ZR-75-1 Tam2 [16]) | drug sensitivity score (T-47D Tam2 [17]) | drug sensitivity score (T-47D [18]; 4-OH-tamoxifen in medium 0 µM) | drug sensitivity score (T-47D [18]; 4-OH-tamoxifen in medium 1 µM) | drug sensitivity score (MCF-7 Tam1 [19]) | drug sensitivity score (BT-474 [20]; 4-OH-tamoxifen in medium 0 µM) | drug sensitivity score (BT-474 [20]; 4-OH-tamoxifen in medium 1 µM) | drug sensitivity score (T-47D Tam1 [21]) | drug sensitivity score (BT-474 Tam2 [22])
1 | C[C@]1(c2nc3c(C(N)=O)cccc3[nH]2)CCCN1 [Veliparib  (ABT-888)] | > 10 µM | > 10 µM | > 10 µM | > 10 µM | > 10 µM | > 10 µM | > 10 µM | > 10 µM | > 10 µM | > 10 µM | > 10 µM | > 10 µM | > 10 µM | > 10 µM | > 10 µM | 0 | 0 | 0 | 0 | 0 | 0 | 0 | 0 | 0 | 0 | 0 | 0 | 0 | 0 | 0
2 | N#CC[C@H](C1CCCC1)n1cc(-c2ncnc3[nH]ccc23)cn1 | > 10 µM | > 10 µM | > 10 µM | > 10 µM | > 10 µM | > 10 µM | > 10 µM | > 10 µM | > 10 µM | > 10 µM | > 10 µM | > 10 µM | > 10 µM | > 10 µM | > 10 µM | 0 | 0 | 0 | 0 | 0 | 0 | 0 | 0 | 0 | 0 | 0 | 0 | 0 | 0 | 0
3 | O=C(CCBr)N1CCN(C(=O)CCBr)CC1 [Pipobroman] | > 10 µM | > 10 µM | > 10 µM | > 10 µM | > 10 µM | > 10 µM | > 10 µM | > 10 µM | > 10 µM | > 10 µM | > 10 µM | > 10 µM | > 10 µM | > 10 µM | > 10 µM | 0 | 0 | 0 | 0 | 0 | 0 | 0 | 0 | 0 | 0 | 0 | 0 | 0 | 0 | 0
4 | CN1CC[C@H](c2c(O)cc(O)c3c(=O)cc(-c4ccccc4Cl)oc23)[C@H](O)C1 [Alvocidib (Flavopiridol)] | 0.217 µM | 0.251 µM | 0.246 µM | 0.477 µM | 0.187 µM | 0.515 µM | 0.355 µM | 0.184 µM | 0.408 µM | > 10 µM | 0.316 µM | – | 0.388 µM | 0.174 µM | 0.363 µM | 19.8 | 10.4 | 9.96 | 7.64 | 13.6 | 9.86 | 10.1 | 7.73 | 7.14 | 0 | 4.64 | 1.69 | 14.1 | 16.8 | 16.9
5 | COCC[n+]1c2c(n(Cc3cnccn3)c1C)C(=O)c1ccccc1C2=O [YM155] | 0.218 µM | 0.0365 µM | 0.202 µM | 0.454 µM | 0.00265 µM | 0.0496 µM | 0.358 µM | 0.811 µM | 0.0475 µM | 0.299 µM | 0.057 µM | 0.0711 µM | 0.171 µM | 0.526 µM | 0.337 µM | 19.6 | 28.5 | 19 | 15.3 | 43 | 26.5 | 16.2 | 11.4 | 27.1 | 17.6 | 25.8 | 25.6 | 20.9 | 14.2 | 16.6
6 | CCc1c(C(=O)C(N)=O)c2c(OCC(=O)O)cccc2n1Cc1ccccc1 [Varespladib] | > 10 µM | > 10 µM | > 10 µM | > 10 µM | – | > 10 µM | > 10 µM | > 10 µM | > 10 µM | > 10 µM | > 10 µM | > 10 µM | > 10 µM | > 10 µM | > 10 µM | 0 | 0 | 0 | 0 | 0.0495 | 0 | 0 | 0 | 0 | 0 | 0 | 0 | 0 | 0 | 0
7 | Cn1cc(C2=C(c3cn(C4CCN(Cc5ccccn5)CC4)c4ccccc34)C(=O)NC2=O)c2ccccc21 [Enzastaurin] | > 10 µM | > 10 µM | > 10 µM | > 10 µM | > 10 µM | > 10 µM | > 10 µM | > 10 µM | > 10 µM | > 10 µM | > 10 µM | > 10 µM | > 10 µM | > 10 µM | > 10 µM | 0 | 0 | 0 | 0 | 0 | 0 | 0 | 0 | 0 | 0 | 0 | 0 | 0 | 0 | 0

Source: the supplement of paper PMC4932681
